Source: PubChem BioAssay (NCI)
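Growth conditions: 96-well plates. Treatment: test compound, 48 hours, 5 concentrations. Analysis: linear interpolation between bracketing concentrations; unreached endpoints set to highest concentration. GI50 is the concentration that inhibits growth by half. TGI: concentration producing complete growth inhibition.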

Each compound was assayed on MDA-MB-468 breast (assay: NCI anticancer screen, dose series, 48 h).

Compound	GI50 [nM]	TGI [nM]
COC(=O)Nc1nc2ccc(Oc3ccc(NC(=O)Nc4cc(C(F)(F)F)ccc4F)cc3)cc2s1	9110	> 25000
COc1cc[nH]c1/C=C1\C(=O)Nc2ccc(F)c(C#CC3(O)CCNCC3)c21	123	600
COc1cc2cc(Oc3ccc(NC(=O)Nc4ccc(Cl)c(C(F)(F)F)c4)cc3)c(C)nc2cc1OCCN1CCOCC1	474	2060
CC1(C)OC2=C(CC1Br)C(=O)C(=O)c1ccccc12 (centres undefined)	1450	2820
Cc1ccc(C(=O)N(CCCN)C(c2oc3cc(Cl)ccc3c(=O)c2Cc2ccccc2)C(C)C)cc1 (centres undefined)	< 10	904
CCCC(=O)OCC1OC(n2cnc3c(=S)nc[nH]c32)C(OC(=O)CCC)C1OC(=O)CCC (centres undefined)	802	45000
O=C(O)CCNC1CCCCC1	> 100000	> 100000
COc1ccc(CNS(=O)(=O)/N=C2\NC(=O)NC2=C(Cl)Cl)cc1	180	650
Cc1ccc(C(=O)NC(C)C)cc1-c1ccc(C(=O)NCC2CC2)cc1	> 25000	> 25000
CC/C=C\C[C@H](F)C/C=C1/C(=O)C=C[C@@H]1C/C=C\CCCC(=O)O	3850	11500
COc1ccc(-c2onc(N)c2-c2cc(OC)c3c(c2)OCO3)cc1	644	3150
Cc1cc(-c2cnn3c(NCC4CC(C)(O)C4)cc(Oc4cccnc4)nc23)ccc1C(=O)NC1CC1 (centres undefined)	2080	> 100000
C#CCNC(=O)c1cccc2c1cc(C)n2-c1nc2c(c(NCc3ccccc3)n1)CCCC2	21.3	54.6
CS(=O)(=O)CCNCc1ccc(-c2ccc3ncnc(Nc4ccc(OCc5ccccc5)cc4)c3c2)o1	146	1620
COc1ccc(-c2cnc(NC(=O)CCCCCCNC(=O)C(O)(O)C(F)(F)F)s2)cc1	877	5560
COc1cc2ncn(-c3cc(OCc4cccs4)c(C(N)=O)s3)c2cc1OC	654	6410
CCCn1c(=S)sc2c1nc(C)n1c(Nc3ccccc3)nnc21	2030	13000
CCN(CC)CCCC(C)Nc1c2ccc(Cl)cc2nc2ccc(O)cc12 (centres undefined)	1310	2910
Nc1nccc(-c2c(-c3ccc(F)cc3)ncn2C2CCC(O)CC2)n1 (centres undefined)	822	6360
C#C[C@]1(O)CC[C@H]2[C@@H]3CC=C4c5sc(Nc6ncccc6C)nc5CC[C@]4(C)[C@H]3CC[C@@]21C	1250	3230
COc1ccc(-c2nc(-c3nc4ccc(Cl)cc4[nH]3)c3ccccn23)cc1	1990	6760

Compound	GI50 [nM]	TGI [nM]
CCOCC(=O)N[C@H]1CCc2cc(OC)c(OC)c(OC)c2-c2ccc(OC)c(=O)cc21	< 10	> 100000
Nc1nc2c(nnn2C2CC(O)C(CO)O2)c(=O)[nH]1 (centres undefined)	825	7200
CC(C)(O)c1cncc(-c2ccc3ncnc(N4CCc5cc(F)c(Cl)cc54)c3c2)c1	567	3500
Nc1nc(N(Cc2ccccc2)c2ccccc2)c2cn[nH]c2n1	1960	6330
Cc1ccc(-c2nc3nc(-c4ccccc4)nc(N4CCCNCC4)c3o2)cc1	1590	3350
O=C1Nc2ccccc2C1(c1ccc(O)cc1)c1ccc(O)cc1	227	14100
CCCCCCCC[C@@H](O)CC(=O)N[C@@H](CC(N)=O)C(=O)N[C@@H](CCC(N)=O)C(=O)N[C@@H](CC(=O)c1cc(C)cc(O)c1C(=O)c1c(O)cccc1O)CC(C)C	401	3140
NC(=O)NS(=O)(=O)c1ccc(N2N=C(C(F)(F)F)CC2c2cc(C(F)(F)F)cc(C(F)(F)F)c2)cc1 (centres undefined)	2700	10900
O=C(CCc1nnc2sc(-c3ccc(Cl)cc3Cl)nn12)c1nc2ccccc2[nH]1	466	1490
C[N+]1=C(/C=C/c2ccc(O)c3ncccc23)C(C)(C)c2ccccc21	3050	10600
CN(C)CCCOc1ccc(C(=C(c2ccccc2)C2CCCC2)c2ccc(OCCCN(C)C)cc2)cc1	1710	3970
CCCCCCCCn1ccc2cc(NC(=O)Cn3cc(CN4CCCC4)nn3)ccc21	1630	3170
C=C(C[C@](O)(C(=O)/C=C/c1ccc(Cl)cc1)C(=O)OC)c1ccccc1	3760	13700
CNC(=O)c1cc(-c2ccc(NC(=O)Nc3ccc(N4CCN(C)CC4)c(C(F)(F)F)c3)cc2)nc2cccnc12	14800	32900
Cc1ccc2c(c1)Sc1c(ccc3ccccc13)N2	56200	> 100000
O=C(Nc1ccc(-c2nc(N3CCOCC3)c3cccn3n2)cc1)Nc1cccnc1	69.2	570
O=C(Nc1ccncc1)C(=O)c1cn(S(=O)(=O)c2cccc(F)c2)c2ccccc12	1260	8380
O=C(O)/C=C(\c1nc2ccc([N+](=O)[O-])cc2[nH]1)c1cc(Cl)ccc1O	2090	9960
COc1ccc2c(c1)CCCN2c1c2ccccc2nc2ccccc12	386	> 100000
O=C1C(Cl)=C(NCCN2CCOCC2)C(=O)c2ncccc21	1410	2910
CC/C=C\C[C@@H](O)C/C=C1/C(=O)C=C[C@H]1C/C=C\CCCC(=O)OC	2120	4790
